# Patent US10626112B2, “Heterocyclic sulfonamide derivative and medicine comprising same” (EA PHARMA CO., LTD., priority 2014, dated 2020)
# Target: human TRPA1 (Homo sapiens (Human), UniProt O75762)
# Assay: Measurement of TRPA1 antagonist activity (1): intracellular calcium increase
# Type: cell-based
# Conditions: 293T cells transfected with human TRPA1 expression plasmid; allylisothiocyanate 20 μM stimulation; intracellular calcium fluorescence; read-out: hTRPA1 IC50
# Source text: Measurement of TRPA1 Antagonist Activity (1)
# Human TRPA1 Expression Plasmid
# As cDNA encoding human TRPA1 (GenBank accession No. […]), a commercially available product was purchased (manufactured by Kazusa DNA Research Institute, clone No.: pFN21AB7348, item No.: FHC07217). Using this as a template, full-length human TRPA1 gene was amplified using the primer sequences shown below, by reaction using DNA polymerase (manufactured by Stratagene, trade name: PfuUltra High-Fidelity DNA Polymerase).
# A recognition site (underlined) of restriction enzyme HindIII was added to the 5′ side, and XbaI site (underlined) was added to the 3′ side, and GTT of the template sequence was changed to termination codon TAG (bold). The obtained double stranded DNA was enzyme-digested with HindIII and XbaI, and introduced into the multicloning site of expression plasmid pcDNA3.1/zeo(+) (manufactured by Invitrogen) to construct a human TRPA1 expression plasmid.
# Human embryonic kidney-derived 293T cells were cultured in Dulbecco's Modified Eagle Medium containing 10% fetal bovine serum, 10 unit penicillin, and 10 μg streptomycin, plated on a petri dish having a diameter of 10 cm at 3×10^6 cells, and cultured for 24 hr in a CO2 incubator. A reduced serum medium (manufactured by Invitrogen, trade name: OPTI-MEM, 600 μL), a gene transfer reagent (manufactured by Mirus Bio, trade name: Mirus TransIT-293, 18 μL), and human TRPA1 expression plasmid (6 μg) were mixed, the total amount of the mixture was added to the cells on the petri dish to allow for gene transfer. The cells were recovered about for 8 hr later, plated on a poly-D-lysine coated 384 well black/clear bottom plate at 12,000 cells/well, and cultured overnight.
# Measurement of Intracellular Calcium Increase
# The 384 well plate was recovered, and the medium was removed. A calcium-bonded fluorescent indicator (manufactured by Molecular Device, trade name: Calcium4 Assay Kit, 38 μL) dissolved in assay buffer (1×HBSS, 20 mM HEPES, pH 7.2) was added, and the cells were stained in a CO2 incubator for 1 hr. The cells were taken out at room temperature, stood for not less than 15 min, a test substance (10 μL) was added by a platereader FDSS7000 (Hamamatsu Photonics K.K.) equipped with a 384ch dispenser. After 10 min, allylisothiocyanate (12 μL) was further added at a final concentration of 20 μM, and changes in the relative fluorescence intensity after addition of allylisothiocyanate were measured for 5 min.
# Test Substance Preparation
# The test substance was dissolved in dimethyl sulfoxide and serially diluted with an assay buffer containing 0.1% bovine serum albumin (1×HBSS, 20 mM HEPES, pH 7.2) to a 4.8-fold concentration of the evaluation concentration. Allylisothiocyanate, which is a known TRPA1 activator, was dissolved in dimethyl sulfoxide to 100 mM, and further diluted 5-fold (100 μM) of the final concentration, like the test substance.
# Calculation of Antagonist Activity
# Under the test substance-free conditions, the maximum variation range of the fluorescence intensity before and after allylisothiocyanate stimulation was defined to be 100% activity rate, and the variation range before and after buffer stimulation was defined as 0% activity rate. The activity rate on addition of the test substance was determined, and the numerical value obtained by subtracting the activity rate from 100 was defined to be an inhibitory rate. IC50, which is the concentration of the test substance necessary for reaching the 50% inhibitory rate, was calculated from the sigmoid approximate curve by a spreadsheet software Excel-Fit.
# human TRPA1, sequence (O75762 whole entry): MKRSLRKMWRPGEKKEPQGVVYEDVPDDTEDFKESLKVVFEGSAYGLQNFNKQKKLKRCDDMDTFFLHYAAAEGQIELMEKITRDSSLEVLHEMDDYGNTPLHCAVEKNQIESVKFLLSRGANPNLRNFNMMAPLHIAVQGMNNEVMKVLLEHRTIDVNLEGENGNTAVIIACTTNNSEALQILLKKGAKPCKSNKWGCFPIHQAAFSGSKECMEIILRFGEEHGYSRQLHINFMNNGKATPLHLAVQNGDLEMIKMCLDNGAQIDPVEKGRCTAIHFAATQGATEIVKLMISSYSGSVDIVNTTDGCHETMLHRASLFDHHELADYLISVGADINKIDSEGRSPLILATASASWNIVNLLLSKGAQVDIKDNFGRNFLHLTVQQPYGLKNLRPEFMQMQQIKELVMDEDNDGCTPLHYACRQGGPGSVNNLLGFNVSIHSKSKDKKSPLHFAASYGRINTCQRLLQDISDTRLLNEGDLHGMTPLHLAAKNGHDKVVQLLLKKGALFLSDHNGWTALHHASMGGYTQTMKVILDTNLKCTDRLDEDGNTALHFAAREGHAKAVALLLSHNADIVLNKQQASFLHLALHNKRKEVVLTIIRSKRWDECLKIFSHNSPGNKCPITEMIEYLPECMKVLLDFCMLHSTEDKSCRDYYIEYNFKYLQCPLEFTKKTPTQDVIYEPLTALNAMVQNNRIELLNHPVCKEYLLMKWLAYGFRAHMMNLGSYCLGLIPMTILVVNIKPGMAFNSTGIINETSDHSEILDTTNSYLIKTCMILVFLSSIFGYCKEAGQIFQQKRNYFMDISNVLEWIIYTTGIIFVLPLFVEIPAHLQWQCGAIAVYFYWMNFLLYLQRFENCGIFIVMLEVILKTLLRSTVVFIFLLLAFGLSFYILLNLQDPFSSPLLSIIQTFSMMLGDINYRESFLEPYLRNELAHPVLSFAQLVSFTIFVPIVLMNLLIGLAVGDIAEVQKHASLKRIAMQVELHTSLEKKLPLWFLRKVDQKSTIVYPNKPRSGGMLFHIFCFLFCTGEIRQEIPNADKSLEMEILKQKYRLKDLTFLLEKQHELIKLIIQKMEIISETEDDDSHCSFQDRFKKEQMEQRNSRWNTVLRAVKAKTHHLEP
row,IC50,SMILES
1,4 nM,"O=C(NCc1ccnc(-c2ccc(C(F)(F)F)cc2)c1)[C@@H]1CCCN1S(=O)(=O)c1cc2c(F)cccc2o1 [Example 97, (2S)-1-(4-fluorobenzofuran-2-yl)sulfonyl-N-[[2-[4-(trifluoromethyl)phenyl]-4-pyridyl]methyl]pyrrolidine-2-carboxamide]"
2,46 nM,"O=C(NCc1ccnc(-c2ccc(C(F)(F)F)cn2)c1)[C@@H]1CCCN1S(=O)(=O)c1cc2ccccc2o1 [Example 178, (2S)-1-(benzofuran-2-ylsulfonyl)-N-[[2-[5-(trifluoromethyl)-2-pyridyl]-4-pyridyl]methyl]pyrrolidine-2-carboxamide]"
3,9.1 nM,"O=C(NCc1cccc(OCc2ccc(C(F)(F)F)cc2)c1)[C@@H]1CCCN1S(=O)(=O)c1cc2ccccc2o1 [Example 38, (2S)-1-(benzofuran-2-ylsulfonyl)-N-[[3-[[4-(trifluoromethyl)phenyl]methoxy]-phenyl]methyl]pyrrolidine-2-carboxamide]"
4,5.6 nM,"O=C(NCc1cc(-c2ccc(OC(F)(F)F)cc2)ccn1)[C@@H]1CCCN1S(=O)(=O)c1cc2ccccc2o1 [Example 153, (2S)-1-(benzofuran-2-ylsulfonyl)-N-[[4-[4-(trifluoromethoxy)phenyl]-2-pyridyl]methyl]pyrrolidine-2-carboxamide]"
5,570 nM,"C[C@H](NS(=O)(=O)c1cc2ccccc2o1)C(=O)NCc1cccc(OCC2CCOCC2)c1 [Example 183, (2S)-2-(benzofuran-2-ylsulfonylamino)-N-[[3-(tetrahydropyran-4-ylmethoxy)phenyl]methyl]propanamide]"
6,250 nM,"O=C(NCc1cc(/C=C/C2CC2)ccn1)[C@@H]1CCCN1S(=O)(=O)c1cc2ccccc2o1 [Example 282, (2S)-1-(benzofuran-2-ylsulfonyl)-N-[[4-[(E)-2-cyclopropylvinyl]-2-pyridyl]methyl]pyrrolidine-2-carboxamide]"
7,42 nM,"O=C(NCc1cc(-c2ccc(C(F)(F)F)cn2)ccn1)[C@@H]1[C@@H](O)CCN1S(=O)(=O)c1cc2ccccc2o1 [Example 227, (2S,3S)-1-(benzofuran-2-ylsulfonyl)-3-hydroxy-N-[[4-[5-(trifluoromethyl)-2-pyridyl]-2-pyridyl]methyl]pyrrolidine-2-carboxamide]"
8,96 nM,"O=C(NCc1cccc(OCc2ccc(C(F)(F)F)cc2)c1)[C@@H]1CCCN1S(=O)(=O)c1cc2ccc(F)cc2o1 [Example 40, (2S)-1-(6-fluorobenzofuran-2-yl)sulfonyl-N-[[3-[[4-(trifluoromethyl)phenyl]methoxy]-phenyl]methyl]pyrrolidine-2-carboxamide]"
9,34 nM,"O=C(NCc1cnnc(-c2ccc(C(F)(F)F)cc2)c1)[C@@H]1CCCN1S(=O)(=O)c1cc2ccccc2o1 [Example 208, (2S)-1-(benzofuran-2-ylsulfonyl)-N-[[6-[4-(trifluoromethyl)phenyl]-pyridazin-4-yl]methyl]pyrrolidine-2-carboxamide]"
10,110 nM,"O=C(NCc1ccc2occc2c1)[C@@H]1CCCN1S(=O)(=O)c1cc2cc(F)ccc2o1 [Example 74, (2S)-N-(benzofuran-5-ylmethyl)-1-(5-fluorobenzofuran-2-yl)sulfonyl-pyrrolidine-2-carboxamide]"
11,11 nM,"O=C(NCc1cccc(OCc2cccc(C(F)(F)F)n2)c1)[C@@H]1CCCN1S(=O)(=O)c1cc2cc(F)ccc2o1 [Example 25, (2S)-1-(5-fluorobenzofuran-2-yl)sulfonyl-N-[[3-[[6-(trifluoromethyl)-2-pyridyl]methoxy]phenyl]-methyl]pyrrolidine-2-carboxamide]"
12,69 nM,"O=C(NCc1cccc(OS(=O)(=O)c2cc3cc(F)ccc3o2)c1)[C@@H]1CCCN1S(=O)(=O)c1cc2cc(F)ccc2o1 [Example 295, 5-fluorobenzofuran-2-sulfonic acid [3-[[[(2S)-1-(5-fluorobenzofuran-2-yl)sulfonylpyrrolidine-2-carbonyl]amino]methyl]phenyl]ester]"
13,3 nM,"O=C(NCc1cncc(-c2ccc(C(F)(F)F)cc2)c1)[C@@H]1CCCN1S(=O)(=O)c1cc2cc(F)ccc2o1 [Example 139, (2S)-1-(5-fluorobenzofuran-2-yl)sulfonyl-N-[[5-[4-(trifluoromethyl)phenyl]-3-pyridyl]methyl]pyrrolidine-2-carboxamide]"
14,1.4 nM,"O=C(NCc1cc(-c2ccc(C(F)(F)F)cc2O)ncn1)[C@@H]1CCCN1S(=O)(=O)c1cc2cc(F)ccc2o1 [Example 289, (2S)-1-(5-fluorobenzofuran-2-yl)sulfonyl-N-[[6-[2-hydroxy-4-(trifluoromethyl)phenyl]pyrimidin-4-yl]methyl]pyrrolidine-2-carboxamide]"
15,310 nM,"O=C(Nc1cccc(CNC(=O)[C@@H]2CCCN2S(=O)(=O)c2cc3ccccc3o2)c1)c1ccc(C(F)(F)F)cc1 [Example 300, (2S)-1-(benzofuran-2-ylsulfonyl)-N-[[3-[[4-(trifluoromethyl)benzoyl]amino]phenyl]methyl]pyrrolidine-2-carboxamide]"
16,2.1 nM,"O=C(NCc1cccc(-c2ccc(Cl)cc2)c1)[C@@H]1CCCN1S(=O)(=O)c1cc2cc(F)ccc2o1 [Example 156, (2S)-N-[[3-(4-chlorophenyl)phenyl]methyl]-1-(5-fluorobenzofuran-2-yl)sulfonyl-pyrrolidine-2-carboxamide]"
17,13 nM,"N#Cc1ccc(-c2ccnc(CNC(=O)[C@@H]3CCCN3S(=O)(=O)c3cc4cc(F)ccc4o3)c2)cc1 [Example 150, (2S)-N-[[4-(4-cyanophenyl)-2-pyridyl]methyl]-1-(5-fluorobenzofuran-2-yl)sulfonyl-pyrrolidine-2-carboxamide]"
18,13 nM,"O=C(NC1(c2cc(Cl)cc(-c3ccc(C(F)(F)F)nc3)c2)CC1)[C@@H]1CCCN1S(=O)(=O)c1cc2ccccc2o1 [Example 216, (2S)-1-(benzofuran-2-ylsulfonyl)-N-[1-[3-chloro-5-[6-(trifluoromethyl)-3-pyridyl]phenyl]cyclopropyl]-pyrrolidine-2-carboxamide]"
19,630 nM,"CN(C)[C@@H]1C[C@@H](C(=O)NCc2ccnc(-c3ccc(C(F)(F)F)cc3O)c2)N(S(=O)(=O)c2cc3ccccc3o2)C1 [Example 334, (2S,4R)-1-(benzofuran-2-ylsulfonyl)-4-(dimethylamino)-N-[[2-[2-hydroxy-4-(trifluoromethyl)phenyl]-4-pyridyl]methyl]pyrrolidine-2-carboxamide]"
20,22 nM,"O=C(NCc1cccc(SCc2ccc(C(F)(F)F)cc2)c1)[C@@H]1CCCN1S(=O)(=O)c1cc2ccccc2o1 [Example 315, (2S)-1-(benzofuran-2-ylsulfonyl)-N-[[3-[[4-(trifluoromethyl)phenyl]methylsulfanyl]phenyl]methyl]pyrrolidine-2-carboxamide]"
21,13 nM,"C[C@H](NS(=O)(=O)c1cc2cc(F)ccc2o1)C(=O)NCc1ccnc(-c2ccc(C(F)(F)F)cc2)c1 [Example 108, (2S)-2-[(5-fluorobenzofuran-2-yl)sulfonylamino]-N-[[2-[4-(trifluoromethyl)phenyl]-4-pyridyl]methyl]propanamide]"
22,94 nM,"C[C@H](NS(=O)(=O)c1cc2ccccc2o1)C(=O)NCc1cccc(OCc2ccc(C#N)cc2)c1 [Example 182, (2S)-2-(benzofuran-2-ylsulfonylamino)-N-[[3-[(4-cyanophenyl)methoxy]phenyl]methyl]propanamide]"
23,38 nM,"O=C(NCc1cc(C(F)(F)F)ccc1Cl)[C@@H]1CCCN1S(=O)(=O)c1cc2cnccc2o1 [Example 266, (2S)-N-[[2-chloro-5-(trifluoromethyl)phenyl]methyl]-1-furo[3,2-c]pyridin-2-ylsulfonyl-pyrrolidine-2-carboxamide]"
24,2.4 nM,"O=C(NCc1ccnc(-c2ccc(C(F)(F)F)cc2)c1)[C@@H]1CCCN1S(=O)(=O)c1cc2ccccc2o1 [Example 115, (2S)-1-(benzofuran-2-ylsulfonyl)-N-[[2-[4-(trifluoromethyl)phenyl]-4-pyridyl]methyl]pyrrolidine-2-carboxamide]"
